Data as given in patent US20200123127A1, “REMOVAL OF SENESCENCE-ASSOCIATED MACROPHAGES” (EVERON BIOSCIENCES, INC., priority 2016, published 2020).
Where two headings read alike, the source gives them in different places.

Key:
[1] = system: B16 melanoma lung metastasis in C57BL/6 mice; assay: Senescence-enhanced B16 lung metastasis model; format: in vivo, mouse; conditions: 20 mg/kg intraperitoneally once a day for 5 consecutive days; irradiated (11 Gy) C57BL/6 mice
Source text: FIG. 4. Efficacy of A1.1 analogs in the senescence-enhanced B16 metastasis model. (A) Quantification of metastatic nodules by H&E morphometric analysis, and the resulting reduction in tumor burden (%) compared to vehicle control. (B) Quantitation morphometric analysis of lungs excised from irradiated mice treated with analogs of A1.1 post-inoculation of B16 cell intravenously, along with quantitation of morphometric analysis, are provided. (C) In vitro testing of A1.1 and analogs against the growth and viability of B16 cells, as assessed by the resazurin viability assay after 72 hour exposure to compounds compared to non-treated controls.
The role of senescent cells in the promotion of metastatic potential of cancer cells has also been described [Patent WO 2013090645 A1; Campisi, J. (2015). Cancer and Aging: Rival Demons]. […] To test the efficacy of A1.1, irradiated (11 Gy followed by bone-marrow transplantation) and non-irradiated C57BL/6 mice received B16 melanoma cells via tail vein injection were subsequently (72 hours later) administered A1.1 (20 mg/kg) intraperitoneally once a day for 5 consecutive days.
Synthesized analogs were also tested in vivo, to assess whether optimized structures are capable of showing activity against senescence-mediated B16 lung metastasis in irradiated mice (FIG. 4B). Analogs A1.1, A1.12, A1.13, A1.14, A1.15, and A1.6 were administered at 20 mg/kg intraperitoneally for 5 consecutive days. In addition to A1.1, treatment with analogs A1.12, A1.14 and A1.15 at 20 mg/kg reduced the metastatic burden in the lungs of irradiated mice by more than 2-fold.

[2] = system: human neonatal dermal fibroblasts (NDF); assay: Resazurin viability assay, senescent vs proliferating/quiescent human neonatal dermal fibroblasts; format: cell-based; conditions: Homo sapiens, Fibroblast, 72 h, 72 hour exposure, resazurin
Description: FIG. 2. Compound A1.1 selectively kills senescent human neonatal dermal fibroblasts (NDF) cells in a dose- and time-dependent manner. (FIG. 2A) Normal proliferating and quiescent NDF cells, and the cells made senescent via exposure to genotoxic agents (doxorubicin, bleomycin and gamma-irradiation) were incubated with increasing concentrations of A1.1. At 72 hours post-treatment cell viability was measured via resazurin viability assay. (FIG. 2B) Compound A1.1 selectively kills senescent NDF cells in time-dependent manner discriminating between acute genotoxic stress and senescence. Acutely damaged NDF cells were irradiated with 4 Gy gamma-irradiation 24 hours before A1.1 treatment. Senescent NDF cells were treated with bleomycin or irradiated with 15 Gy and incubated for 14 days to induce senescence before treatment with A1.1. Proliferating acutely damaged and senescent NDF cell were treated with 1.875-30 μM A1.1 and viable cells were measured at 72 hours after treatment. Average and standard deviation are shown.
Normal proliferating and quiescent NDF cells, and the cells made senescent via exposure to genotoxic agents (doxorubicin, bleomycin and gamma-irradiation) were incubated with increasing concentrations of A1.1. At 72 hours post-treatment cell viability was measured via resazurin viability assay.
A1.1 selectively kills senescent human neonatal dermal fibroblasts (NDF) cells in time-dependent manner discriminating between acute genotoxic stress and senescence ([…]). Acutely damaged NDF cells were irradiated with 4 Gy gamma-irradiation 24 hours before A1.1 treatment. Senescent NDF cells were treated with bleomycin or irradiated with 15 Gy and incubated for 14 days to induce senescence before treatment with A1.1.
(§1) Cytotoxicity of A1.1 analogs against bleomycin-induced senescent human NDFs and rat dermal fibroblasts (RDFs). Activity of analogs was assessed from dose-response curves against irradiation- or bleomycin-induced senescent and proliferating cells to calculate IC50s (uM). The fold difference of proliferating versus senescent cell IC50s was used to assess the level of specific anti-senescent activity of the compounds.
(§2) For generation senescent human neonatal dermal fibroblasts (NDFs) and adult rat dermal fibroblasts (RDFs), cells are treated at ˜10 ug/ml bleomycin for 3 days (for bleomycin-induced senescence) or irradiated once at 20 Gy using a gamma irradiator (Cs source), followed by at least 7 day recovery in fresh medium for induction of senescence. Senescent and non-senescent (proliferating) cells for each cell line are plated into 384-w plate, followed by 72 hour exposure to a dose titration of compounds. Viability measurements are estimated using the resazurin viability assay. Using GraphPad Prism 5, the IC50 values are calculated from the non-linear regression of log-transformed compound concentrations versus dose-response normalized to background and non-treated controls.

[3] = system: RWPE-1 normal prostate epithelial cells; assay: dnPTEN-induced senescence model in RWPE-1 cells (SA-beta-Gal and methylene blue staining); format: cell-based; conditions: 10 uM for 72 hours
Description: FIG. 3. Activity of A1.1 and analog A1.12 in a model of dnPTEN-induced senescence in RWPE-1 normal prostate epithelial cells. A population of transduced RWPE-1 cells containing doxycycline-inducible dnPTEN was senesced via 1 ug/ml doxycycline for 7 days. Cells which bypass senescence continued to proliferate to form a confluent monolayer. The mixed population of senescent and proliferating cells was treated with A1.1 and A1.12 at 10 uM for 72 hours. SA-beta-Gal staining was used to monitor the amount of senescent cells of treatment groups compared to non-treated control. In addition, methylene blue was used to quantitate overall cell mass, which was comprised mostly of the non-senescent, proliferating cells. Treatment with the anti-senescent compounds led to a substantial decrease in SA-beta-Gal staining, while the amount of methylene blue staining was less affected.
Senescent cells are strongly associated with benign prostate hyperplasia (BPH) and the development of prostate cancer [Vital, P. et al. (2014) The Senescence-Associated Secretory Phenotype Promotes Benign Prostatic Hyperplasia. Am J Pathol, 184(3): 721-731; Burton, D. et al. (2013). Androgen Deprivation-Induced Senescence Promoted Outgrowth of Anderogen-Refractory Protstate Cancer Cells. PLOS One, 8(6):e68003]. […] We sought to evaluate the efficacy of our compounds in a model of RWPE-1 normal prostate epithelial cells transduced with a construct for inducible loss of PTEN function [doxycycline-inducible expression of a dominant-negative PTEN (dnPTEN) mutant]. In the presence of doxycycline, a fraction of the population of transduced cells became senescent, while cells bypassing senescence continued to grow until a confluent monolayer was formed.

[4] = system: adult rat dermal fibroblasts (RDF); assay: Resazurin viability assay, senescent vs proliferating rat dermal fibroblasts; format: cell-based; conditions: Rattus norvegicus, Fibroblast, 72 hour exposure, resazurin
Description: as §1, §2

Compound	reduction of B16 metastatic load in the lungs of irradiated mice vs vehicle [1]	IC50 ([2]; proliferating NDF, read-out: IC50 NDFprolif)	IC50 ([2]; senescent NDF, bleomycin-induced, read-out: IC50 NDFsen.bleo)	proliferating cells / overall cell mass (methylene blue staining) [3]	senescent cells (number of SA-β-Gal-positive cells) ([3]; dnPTEN-induced senescence)	IC50 ([4]; proliferating RDF, read-out: IC50 RDFprolif)	IC50 ([4]; senescent RDF, bleomycin-induced, read-out: IC50 RDFsen.bleo)
COc1ccc(C2C/C(=N\O)c3c(SCc4ccccc4)sc(C(=O)N4CCOCC4)c3C2)cc1 (stereo not shown) [Example A1.13, (3-(Benzylthio)-4-(hydroxyimino)-6-(4-methoxyphenyl)-4,5,6,7tetrahydrobenzo[c]thiophen-1-yl)(morpholino)methanone]	did not show a substantial decrease	–	–	–	–	–	–
CCNC(=O)c1sc(SCc2ccccc2)c2c1CC(c1ccc(OC)cc1)C/C2=N\O (stereo not shown) [Example A1.12]	–	< 10 µM	< 5 µM	little effect against proliferating cells	selective elimination of senescent cells	< 10 µM	< 5 µM
